Measurements from ChEMBL document CHEMBL1201862, “PubChem BioAssay data set” (2004).
Where “and” joins values, the source holds several entries; their conditions need not be identical. Equal values may be shown once.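 Method: 48-hour compound exposure of cells in 96-well plates, five concentrations, linear interpolation of endpoints. GI50 marks 50% less growth.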 Calls of active or inactive are those of the source. Cut-off read from the data, not from the text of the source: active = GI50 up to about 1.1 µM and inactive = higher.

How the values were obtained:
Test in all cases: NCI anticancer screen, dose series, 48 h
786-0 = system: 786-0
A498 = system: A498
A549 = system: A549
ACHN = system: ACHN
BT-549 = system: BT-549
CAKI-1 = system: CAKI-1
CCRF-CEM = system: CCRF-CEM
COLO 205 = system: COLO 205
DU-145 = system: DU-145
EKVX = system: EKVX
HCC 2998 = system: HCC 2998
HCT-116 = system: HCT-116
HCT-15 = system: HCT-15
HOP-62 = system: HOP-62
HOP-92 = system: HOP-92
K562 = system: K562
KM12 = system: KM12
LOX IMVI = system: LOX IMVI
M14 = system: M14
MCF7 = system: MCF7
MDA-MB-231 = system: MDA-MB-231
MDA-MB-435 = system: MDA-MB-435
MOLT-4 = system: MOLT-4
NCI-H226 = system: NCI-H226
NCI-H23 = system: NCI-H23
NCI-H460 = system: NCI-H460
NCI/ADR-RES = system: NCI/ADR-RES
OVCAR-3 = system: OVCAR-3
OVCAR-4 = system: OVCAR-4
OVCAR-5 = system: OVCAR-5
PC-3 = system: PC-3
RPMI-8226 = system: RPMI-8226
RXF 393 = system: RXF 393
SF-268 = system: SF-268
SF-295 = system: SF-295
SK-MEL-28 = system: SK-MEL-28
SK-MEL-2 = system: SK-MEL-2
SK-MEL-5 = system: SK-MEL-5
SK-OV-3 = system: SK-OV-3
SNB-19 = system: SNB-19
SNB-75 = system: SNB-75
SW-620 = system: SW-620
T47D = system: T47D
TK-10 = system: TK-10
U-251 = system: U-251
UACC-257 = system: UACC-257
UACC-62 = system: UACC-62
UO-31 = system: UO-31
Malme-3M = system: Malme-3M
NCI-H522 = system: NCI-H522
OVCAR-8 = system: OVCAR-8
SR = system: SR
HL-60 = system: HL-60
HT-29 = system: HT-29
Hs-578T = system: Hs-578T
IGROV-1 = system: IGROV-1
SF-539 = system: SF-539
SN12C = system: SN12C

For `Cc1ccc(C2c3c(n(C)c(=O)n(C)c3=O)OC(N(C)C)(N(C)C)C2(F)F)cc1` (configuration not stated), the GI50 (786-0) was > 100 µM (inactive), the GI50 (A498) was > 100 µM (inactive) and the GI50 (A549) was > 100 µM (inactive). The GI50 (ACHN) was > 100 µM (inactive), the GI50 (BT-549) was > 100 µM (inactive) and the GI50 (CAKI-1) was > 100 µM (inactive). The GI50 (CCRF-CEM) was > 100 µM (inactive), the GI50 (COLO 205) was > 100 µM (inactive) and the GI50 (DU-145) was > 100 µM (inactive). The GI50 (EKVX) was > 100 µM (inactive), the GI50 (HCC 2998) was > 100 µM (inactive) and the GI50 (HCT-116) was > 100 µM (inactive). For the same molecule, the GI50 (HCT-15) was over 100 µM, the GI50 (HOP-62) was > 100 µM (inactive) and the GI50 (HOP-92) was > 100 µM (inactive). The GI50 (K562) was > 100 µM (inactive), the GI50 (KM12) was > 100 µM (inactive) and the GI50 (LOX IMVI) was > 100 µM (inactive). The GI50 (M14) was > 100 µM (inactive), the GI50 (MCF7) was > 100 µM (inactive) and the GI50 (MDA-MB-231) was > 100 µM (inactive). For the same molecule, the GI50 (MDA-MB-435) was > 100 µM (inactive), the GI50 (MOLT-4) was > 100 µM (inactive) and the GI50 (NCI-H226) was > 100 µM (inactive). The GI50 (NCI-H23) was > 100 µM (inactive), the GI50 (NCI-H460) was > 100 µM (inactive) and the GI50 (NCI/ADR-RES) was > 100 µM (inactive). The GI50 (OVCAR-3) was > 100 µM (inactive), the GI50 (OVCAR-4) was 51.4 µM (inactive) and the GI50 (OVCAR-5) was > 100 µM (inactive). For the same molecule, the GI50 (PC-3) was > 100 µM (inactive), the GI50 (RPMI-8226) was > 100 µM (inactive) and the GI50 (RXF 393) was > 100 µM (inactive). For the same molecule, the GI50 (SF-268) was > 100 µM (inactive), the GI50 (SF-295) was > 100 µM (inactive) and the GI50 (SK-MEL-28) was > 100 µM (inactive). The GI50 (SK-MEL-2) was > 100 µM (inactive), the GI50 (SK-MEL-5) was > 100 µM (inactive) and the GI50 (SK-OV-3) was > 100 µM (inactive). The GI50 (SNB-19) was > 100 µM (inactive), the GI50 (SNB-75) was > 100 µM (inactive) and the GI50 (SW-620) was > 100 µM (inactive). For the same molecule, the GI50 (T47D) was > 100 µM (inactive), the GI50 (TK-10) was > 100 µM (inactive) and the GI50 (U-251) was > 100 µM (inactive). The GI50 (UACC-257) was > 100 µM (inactive), the GI50 (UACC-62) was > 100 µM (inactive) and the GI50 (UO-31) was > 100 µM (inactive).
In the case of `CCOC(=O)c1c(-c2ccc(OC)c(O)c2)c(C#N)c(=S)n(C2OC(COC(C)=O)C(OC(C)=O)C(OC(C)=O)C2OC(C)=O)c1-c1ccccc1` (configuration not stated), the GI50 (A498) is reported as > 100 µM (inactive), the GI50 (A549) is reported as 51.9 µM (inactive) and the GI50 (BT-549) is reported as 28.8 µM (inactive). The GI50 (Malme-3M) was 32.4 µM (inactive), the GI50 (NCI-H226) was > 100 µM (inactive) and the GI50 (NCI-H460) was 67.1 µM (inactive) and 34 µM (inactive). For the same molecule, the GI50 (NCI-H522) was 21.4 µM (inactive), the GI50 (OVCAR-5) was > 100 µM (inactive) and the GI50 (OVCAR-8) was > 100 µM (inactive). The GI50 (RXF 393) was 50.1 µM (inactive), the GI50 (SF-295) was 52.8 µM (inactive) and the GI50 (SNB-19) was > 100 µM (inactive) and 83.2 µM (inactive). For the same molecule, the GI50 (SR) was > 100 µM (inactive) and 60.3 µM (inactive), the GI50 (SW-620) was 59.7 µM (inactive) and the GI50 (U-251) was 90.4 µM (inactive).
`O=NN1CCCS1(=O)=O` was tested, and the GI50 (786-0) was > 100 µM (inactive), the GI50 (A498) was > 100 µM (inactive) and the GI50 (A549) was > 100 µM (inactive). The GI50 (ACHN) was > 100 µM (inactive), the GI50 (BT-549) was > 100 µM (inactive) and the GI50 (CAKI-1) was > 100 µM (inactive). The GI50 (CCRF-CEM) was > 100 µM (inactive), the GI50 (COLO 205) was > 100 µM (inactive) and the GI50 (DU-145) was > 100 µM (inactive). The GI50 (EKVX) was > 100 µM (inactive), the GI50 (HCC 2998) was > 100 µM (inactive) and the GI50 (HCT-116) was > 100 µM (inactive). The GI50 (HCT-15) was over 100 µM, the GI50 (HL-60) was > 100 µM (inactive) and the GI50 (HOP-62) was > 100 µM (inactive). The GI50 (HT-29) was > 100 µM (inactive), the GI50 (Hs-578T) was > 100 µM (inactive) and the GI50 (IGROV-1) was > 100 µM (inactive). The GI50 (K562) was > 100 µM (inactive), the GI50 (KM12) was > 100 µM (inactive) and the GI50 (LOX IMVI) was > 100 µM (inactive). The GI50 (M14) was > 100 µM (inactive), the GI50 (MCF7) was > 100 µM (inactive) and the GI50 (MDA-MB-231) was > 100 µM (inactive). The GI50 (MOLT-4) was > 100 µM (inactive), the GI50 (Malme-3M) was > 100 µM (inactive) and the GI50 (NCI-H226) was > 100 µM (inactive). For the same molecule, the GI50 (NCI-H23) was > 100 µM (inactive), the GI50 (NCI-H460) was > 100 µM (inactive) and the GI50 (NCI/ADR-RES) was > 100 µM (inactive). For the same molecule, the GI50 (OVCAR-3) was > 100 µM (inactive), the GI50 (OVCAR-4) was > 100 µM (inactive) and the GI50 (OVCAR-5) was > 100 µM (inactive). The GI50 (OVCAR-8) was > 100 µM (inactive), the GI50 (PC-3) was > 100 µM (inactive) and the GI50 (RPMI-8226) was > 100 µM (inactive). For the same molecule, the GI50 (RXF 393) was > 100 µM (inactive), the GI50 (SF-268) was > 100 µM (inactive) and the GI50 (SF-295) was > 100 µM (inactive). The GI50 (SF-539) was > 100 µM (inactive), the GI50 (SK-MEL-28) was > 100 µM (inactive) and the GI50 (SK-MEL-5) was > 100 µM (inactive). For the same molecule, the GI50 (SK-OV-3) was > 100 µM (inactive), the GI50 (SN12C) was > 100 µM (inactive) and the GI50 (SNB-19) was > 100 µM (inactive). For the same molecule, the GI50 (SNB-75) was 12.6 µM (inactive), the GI50 (SR) was > 100 µM (inactive) and the GI50 (SW-620) was > 100 µM (inactive). The GI50 (T47D) was > 100 µM (inactive), the GI50 (TK-10) was > 100 µM (inactive) and the GI50 (U-251) was > 100 µM (inactive). The GI50 (UACC-257) was > 100 µM (inactive), the GI50 (UACC-62) was > 100 µM (inactive) and the GI50 (UO-31) was 95.1 µM (inactive).
